Measured values taken from patent US12171821B2, “Toxoplasma gondii vaccine” (priority 2018, dated 2024).
“And” between values parts separate entries of the source, which are not always exact repeats. Equal values may be shown once. “Also recorded” adds a separate entry of the source.

Tests used:
[1] = tested on: T. gondii ME49 bradyzoites; assay: Merozoite markers GRA11B/BRP1, immunofluorescence, infected cat intestinal monolayers; type: cell-based, Toxoplasma gondii; conditions: 200 μM fatty acid, 5 days of infection
Procedure: FIGS. 6A-B. Quantification of merozoites in cat tissue culture. A) Cat intestinal organoids were disassociated by trypsin then grown as monolayers on glass slides. Slides were divided into three different groups: not supplemented with fatty acid, supplemented with 200 μM oleic acid or supplemented 200 μM linoleic acid. Monolayers were infected with T. gondii MEM bradyzoites purified from brains of chronic infected mice at a 1:10 MOI. Five days after infection, staining for GRA11B and BRP1 along with DAPI, allowed the percentage of vacuoles positive for GRA11B and BRP1out of the total vacuoles was determined. Total number of parasitophorous vacuoles were counted by positive DAPI staining and confirmed by morphology with DIC. At least 50 parasitophorous vacuoles were counted per replicate. Three biological replicates were counted and on average 35% of the total vacuoles were positive far both GRA11B and BRP1 in the linoleic acid supplemented monolayers. *p-value=0.0126 with N=3 by two-tailed unpaired t test. Straining for both BRP1 and GRA11B was used to ensure that merozoite stages were counted. […] BRP1 is a rhoptry protein that was initially found in bradyzoites; however, it is also expressed in merozoite. […]

[2] = tested on: T. gondii ME49 bradyzoites; assay: qPCR of SAG1, GRA11B, TUB1A on cDNA of infected cat intestinal monolayers; type: cell-based, Toxoplasma gondii; conditions: cat intestinal monolayers cDNA
Procedure: FIGS. 6A-B. Quantification of merozoites in cat tissue culture. A) Cat intestinal organoids were disassociated by trypsin then grown as monolayers on glass slides. Slides were divided into three different groups: not supplemented with fatty acid, supplemented with 200 μM oleic acid or supplemented 200 μM linoleic acid. Monolayers were infected with T. gondii MEM bradyzoites purified from brains of chronic infected mice at a 1:10 MOI. Five days after infection, staining for GRA11B and BRP1 along with DAPI, allowed the percentage of vacuoles positive for GRA11B and BRP1out of the total vacuoles was determined. Total number of parasitophorous vacuoles were counted by positive DAPI staining and confirmed by morphology with DIC. At least 50 parasitophorous vacuoles were counted per replicate. Three biological replicates were counted and on average 35% of the total vacuoles were positive far both GRA11B and BRP1 in the linoleic acid supplemented monolayers. *p-value=0.0126 with N=3 by two-tailed unpaired t test. Straining for both BRP1 and GRA11B was used to ensure that merozoite stages were counted. […] BRP1 is a rhoptry protein that was initially found in bradyzoites; however, it is also expressed in merozoite. B) Cat intestinal monolayers were grown as described in panel A, except monolayers were quenched by TRIzol 5 days post-infection, RNA was extracted, and cDNA was synthesized using an oligo (dT) primer to amplify mRNA, Expression of SAG1 and GRA11B were quantified by qPCR and the fold change calculated in comparison with uninfected cells. TUB1A was used to normalize gene expression across samples.
Real-time PCR on ileum cDNA. Z-DNA binding protein deletion mice ice with and without delta-6-desaturase inhibitor treatment were euthanized 7 days post infection. The ileum of each mouse was removed and homogenized in 1 mL of TRIzol. Total RNA was isolated according to manufacturer's protocol (Invitrogen) and treated with amplification grade Dnase I. cDNA was generated using the Invitrogen SuperScript III First-Strand Synthesis kit with random hexamer primers. GRA11B and SAG1 were used as markers of sexual and asexual stages, respectively. The T. gondii housekeeping gene TUB1A was used to normalize target gene expression. Real-time quantitative PCR was performed using Bio-Rad iTaq Universal SYBR Green Supermix on 311 an Applied Biosystems StepOnePlus Real-Time PCR system. The efficiency of each primer set was calculated from the slope of a 1:10 dilution standard curve of tachyzoite gDNA, where E=10^(−1/slope). The Pfaffl method (Pfaffl, 2001), which accounts for differences in efficiencies, was then used to calculate the relative gene expression of GRA11B and SAG1 per sample, in triplicate. Only wells with one melt curve temperature were used, indicating a single product. Primer sequences were as follows: […]

[3] = tested on: T. gondii ME49 bradyzoites; assay: Gametes and intracellular oocyst walls (AO2, 3G4, PCR) in infected cat intestinal monolayers; type: cell-based, Toxoplasma gondii; conditions: cultured cat cells, 200 μM fatty acid, 7 days of infection
Procedure: FIGS. 7A-H. Identification of gametes and intracellular oocysts in cat tissue culture. Cat intestinal organoids were disassociated by trypsin then grown as monolayers on glass slides. […] After 7 days, monolayers were incubated with mouse anti-AO2 (panels A-C) or mouse monoclonal IgM 3G4 (panels E-G), The amiloride-sensitive amine oxidase, copper-containing protein 2 (AO2) is an enzyme exclusively expressed in macrogametes and early oocysts and has a possible role in oocyst wall biogenesis. […] 3G4 is a mouse monoclonal antibody produced by immunizing mice with purified oocyst walls, thus it is a marker of oocyst wall biogenesis. Only monolayers supplemented with linoleic acid (G) had positive 3G4 vacuoles. All panels are 20 μm square with a 5 μm white size bar in the lower right corner. D) Markers for macrogamete and microgamete expression were also evaluated by PCR. Cat intestinal monolayers were grown in 24-well plates until confluency and then infected with T. gondii bradyzoites in duplicate using the same conditions as above. 7 days post-infection, RNA was extracted with TRIzol and cDNA was synthesized using an oligo (dT) primer to only amplify mRNA. AO2 was again used as a marker for macrogametes and the expected PCR product is 218 bp. To assess microgamete presence, we selected the gene TgME49_306338, which is overexpressed in the gametes stage, corresponded to day 7 post-infection in cats and has 44% identity to a protein expressed in the flagella of the motile green algae Chlamydomonas reinhardtii. The expected PCR product for TgME49_306338 is 160 bp. TUB1A was used as an input control and results in a 172 bp product. NO RT corresponds to a cDNA synthesis reaction without the addition of reverse transcriptase (RI) as a control for genomic DNA contamination. Equivalent amounts of cDNA per sample were used as a template for each PCR reaction, and the products were separated on an acrylamide gel. […] H) The number of positive oocyst walls stained with 3G4 were quantified. […] The number of positive oocyst walls were counted in each slide and divided by the area of slide in cm^2.
Immunofluorescence. Intestinal organoid monolayers or mouse fecal samples were fixed in 3.7% formaldehyde in PBS for 20 minutes, permeabilized with 0.2% triton X-100 (Sigma) in PBS at room temperature for one hour and then blocked with 3% BSA in PBS at room temperature for one hour. Primary antibody was incubated at 4° C. overnight in 0.2% v/v Triton x-100 and 3% BSA in PBS (1:100 mouse anti-GRA11B, 1:100 rabbit anti-BRP1, 1:100 mouse anti-AO2, 1:50 monoclonal mouse anti-ZO1 (Santa Cruz) or 1:25 mouse 288 IgM anti-oocyst wall 3G4. Sporulated oocysts from mouse feces were dried onto slides, fixed and permeabilized with ice cold acetone for 30 minutes and incubated with 1:20 mouse 4B6 to the visualize the sporocyst. Slides were incubated one hour with the specific secondary antibody (1:500 goat anti-rabbit Alexa Fluor 488 and 1:500 goat anti-mouse Alexa Fluor 594) at room temperature for one hour and then washed 3 times with PBS. Cells nuclei were stained with 10 μM DAPI (Sigma). Slides were mounted in Vectashield antifade mounting medium (VectorLabs). Samples were imaged on Zeiss Axioplan III equipped with a triple-pass (DAPI/fluorescein isothiocyanate [FITC]/Texas Red) emission cube, differential interference contrast optics, and a monochromatic Axiocam camera operated by Zen software (Zeiss) and processed using ImageJ (Fiji packet).
PCR of cat intestinal monolayers. […]

[4] = whole animal experiments (He et al., 2012); cited from earlier work
[5] = tested on: T. gondii; assay: Oocyst counts in mouse feces by microscopy; type: in vivo, Toxoplasma gondii; conditions: mice, inhibitor every 12 hours for the 7 days of infection
Procedure: (§1) Delta-6-desaturase inhibition. SC 26196 (Cayman) was solubilized in DMSO and used at 20 μM in mouse organoid monolayers. For in vivo treatment, the inhibitor was solubilized in 0.5% m/v methylcellulose and the mice were given 50 mg/kg every 12 hours by oral gavage (He et al., 2012). 4-week old C57BL/6J female mice deleted in Z-DNA-binding protein (Pittman et al., 2016) were divided into four different groups: uninfected control, T. gondii-infected without fatty acid supplementation, T. gondii infected with linoleic acid supplementation, and T. gondii-infected with linoleic acid and SC 26196 inhibitor. Each mouse supplemented with linoleic acid received 10 μL of 99% linoleic acid oil (MilliporaSigma Cat #843483) suspended in 0.5% Methylcellulose per day by oral gavage. Mice were infected with 1000 brain cysts purified as described above by oral gavage and euthanized 7 days post infection. Sample size was at least 2 mice per group and the experiment was repeated 5 times. Alternatively, each mouse was infected with one mouse brain at least 2 months postinfection with at least 1000 cysts. Mice were treated with SC 26196 until day 5 postinfection. Feces were collected from days 5-14 and oocysts enumerated by microscopy.

[6] = tested on: T. gondii; assay: Real-time PCR (SAG1) on gDNA of mouse fecal samples; type: in vivo, Toxoplasma gondii; conditions: mice fed linoleic acid, with or without SC26196
Procedure: as §1
Real-time PCR on fecal samples. […] A standard curve was generated using a dilution series of 101-105 parasites per well amplified using the SAG1 primer set described above, based on a gDNA sample with known parasite quantity. […]
[formula] […] The calculated copy numbers of each sample were normalized based on the ng of nucleic acid used as PCR template. […]
Statistical methods. […] The difference between the mean target gene copy numbers was analyzed by two-tailed unpaired t tests. […] The difference between the mean relative expression of each target gene was analyzed by two-tailed unpaired t tests.

[7] = tested on: murine organoids; assay: Monolayer formation of murine organoids with delta 6-desaturase inhibitor; type: cell-based, mouse; conditions: about 2 μM to 200 μM, medium with about 200 μM linoleic acid
[8] = tested on: T. gondii ME49 bradyzoites; assay: Real-time PCR on ileum cDNA of infected Z-DNA binding protein knock out mice; type: in vivo, Toxoplasma gondii; conditions: mice, linoleic acid and SC26196 50 mg/kg every 12 hours by oral gavage, seven days after infection
Procedure: as §1
Real-time PCR on ileum cDNA. Z-DNA binding protein deletion mice ice with and without delta-6-desaturase inhibitor treatment were euthanized 7 days post infection. The ileum of each mouse was removed and homogenized in 1 mL of TRIzol. Total RNA was isolated according to manufacturer's protocol (Invitrogen) and treated with amplification grade Dnase I. cDNA was generated using the Invitrogen SuperScript III First-Strand Synthesis kit with random hexamer primers. GRA11B and SAG1 were used as markers of sexual and asexual stages, respectively. The T. gondii housekeeping gene TUB1A was used to normalize target gene expression. Real-time quantitative PCR was performed using Bio-Rad iTaq Universal SYBR Green Supermix on 311 an Applied Biosystems StepOnePlus Real-Time PCR system. The efficiency of each primer set was calculated from the slope of a 1:10 dilution standard curve of tachyzoite gDNA, where E=10^(−1/slope). The Pfaffl method (Pfaffl, 2001), which accounts for differences in efficiencies, was then used to calculate the relative gene expression of GRA11B and SAG1 per sample, in triplicate. Only wells with one melt curve temperature were used, indicating a single product. Primer sequences were as follows:
Statistical methods. All real-time PCR fecal samples were run in triplicate technical replicates. The difference between the mean target gene copy numbers was analyzed by two-tailed unpaired t tests. The real-time PCR intestinal samples were run in triplicate from two biological replicates per group. The difference between the mean relative expression of each target gene was analyzed by two-tailed unpaired t tests.

[9] = biological replicates 1 and 2, wells 1-3

## CCCCCCCC/C=C\CCCCCCCC(=O)O [oleic acid]
[1]
  parasites undergoing sexual development / merozoite stage markers GRA11B and BRP1 (staining): not
[2]; biological replicates 1 and 2
  GRA11B Ct mean: 32.53 and 31.82
  SAG1 Ct mean: 20.83 and 19.56
[2]; [9]
  GRA11B raw Ct values: 32.44 and 31.77 (2×) and 32.73 and 31.91 and 32.43
  SAG1 raw Ct values: 20.87 and 19.66 and 20.88 and 19.54 and 20.75 and 19.46
[3]
  number of positive oocyst walls stained with 3G4: none

## N#CC(CCCN1CCN(/N=C/c2cccnc2)CC1)(c1ccccc1)c1ccccc1 [SC26196]
[4]
  anti-inflammatory effect: effective as an anti-inflammatory agent
[5]
  oocysts produced: 1000-10,000 oocysts/gram dry feces
[6]
  T. gondii genomic DNA in mouse fecal samples (qPCR, SAG1 primers): detectable only in mice treated with SC26196; also recorded: detected only in mice treated with SC26196
[7]
  monolayer formation: did not inhibit monolayer formation
[8]
  expression of merozoite marker GRA11B, qPCR of ileum cDNA: significantly up regulated only in the presence of SC26196
